According to US5633144A, “Assay pad and method for determination of the presence of total coliforms” (priority 1994, dated 1997):
Like-named read-outs stand apart in the source and are kept apart here.

Assays:
[1] = target: T1, beta-galactosidase (Escherichia coli, UniProt P00722); assay type: biochemical, E. coli EW1b; parameters: key: +++++: maximum color intensity; -: complete enzyme inactivation
T1 construct: one convenient source of beta-galactosidase is bacteria which produce this enzyme in useful amounts; endogenous in cells; host or cells: E. coli EW1b (Coli Genetic Stock Culture, Yale University), IPTG-induced, freeze-dried in trehalose, rehydrated

[2] = target: T1, beta-galactosidase; assay type: biochemical, E. coli EW1b
[3] = target: T1, beta-galactosidase; assay type: biochemical, E. coli EW1b; remark: listed apart in the source
[4] = tested on: beta-galactosidase of E. coli EW1b; assay type: biochemical; settings: for Color intensity, distilled water: freeze-dried in distilled water; for Color intensity, trehalose medium: freeze-dried in trehalose medium (22.4% w/v)
[5] = Stability of beta-galactosidase in freeze-dried cells; assay type: physicochemical, E. coli EW1b
Method: A. Preparation of freeze-dried cells
1. Stock cultures of E. coli EW1b are stored in 40% glycerol solution at -14° C. to -20° C.
2. Fifty μL of the stock culture are inoculated into 5 ml of LB-lactose medium (Bacto-tryptone: 1%; yeast extract: 0.5%; NaCl: 1.0%; K2 HPO4 : 0.15%; Lactose: 1%).
3. Cells are grown overnight at 35° C. The bacterial suspension is then diluted with 20 ml of fresh medium, amended with 1 ml of 0.2% (w/v) solution of isopropyl-beta-thiogalactoside (IPTG) and then allowed to grow to absorbance A550 =0.4-0.5.
4. Cells are centrifuged at 8000 RPM for 10 minutes.
5. The pellet is resuspended in distilled water.
6. The suspension is centrifuged for 10 minutes at 8000 RPM.
7. The suspension is resuspended in 2% trehalose to obtain an absorbance of A550 =0.2-0.25 (if using the MUGA pads for enzyme assay, an absorbance of A550 =0.10 is sufficient).
8. This suspension is dispensed in 3 ml aliquots in serum bottles.
9. The cells are frozen overnight at -40° C.
10. The frozen cells are freeze-dried for 24 hours and stored at subzero or at refrigerator temperature until used. […] Moreover, the enzyme was stable for at least 18 hours at 35° C.

[6] = tested on: E. coli EW1b cells; assay: Enhancement of beta-galactosidase production by inducer; assay type: cell-based; settings: E. coli EW1b cells treated with inducer
Source text: As described above, one convenient source of beta-galactosidase is bacteria which produce this enzyme in useful amounts. Advantageously, the enzyme produced by the bacteria is readily accessible to the heavy metal and the substrate. […] Among the bacteria investigated by the applicants are E. coli C3000, E. coli EW1b, and a mixed culture of beta-galactosidase producers isolated from wastewater. E. coli C3000 is available from the American Type Culture Collection (ATCC), 12301 Parklawn Drive, Rockville, Md. 20852 USA. The culture has been assigned the accession number ATCC 15597 by the repository. E. coli EW1b is available from the Coli Genetic Stock Culture, Yale University, New Haven, Conn. The mixed culture was obtained following inoculation of LB-lactose-SDS broth with activated sludge effluent. Although these bacteria would perform well in the assay of the subject invention, E. coli C3000 was not as sensitive to heavy metal toxicity as E. coli EW1b or the mixture of beta-galactosidase producing bacteria. Moreover, due to potential problems in maintaining a mixed culture of bacteria, E. coli EW1b is the preferred microbe. […]
3. […] The bacterial suspension is then diluted with 20 ml of fresh medium, amended with 1 ml of 0.2% (w/v) solution of isopropyl-beta-thiogalactoside (IPTG) and then allowed to grow to absorbance A550 =0.4-0.5.

[7] = cited from earlier work
[8] = Solubility and storage stability of CPRG; assay type: physicochemical; settings: 50 mM K-phosphate buffer containing 1 mM MgCl2, pH 7.5, 4° C.
Method: CPRG was dissolved in 50 mM K-phosphate buffer containing 1 mM MgCl2. […] When the beta-galactosidase catalzyed hydrolysis of CPRG occurs, the resulting product on the MetPAD™ is purple and, thus, is easily detected visibly.

[9] = 400 ppm, maximum concentration tested at which no inhibition was observed

T1 sequence (P00722 2-1024): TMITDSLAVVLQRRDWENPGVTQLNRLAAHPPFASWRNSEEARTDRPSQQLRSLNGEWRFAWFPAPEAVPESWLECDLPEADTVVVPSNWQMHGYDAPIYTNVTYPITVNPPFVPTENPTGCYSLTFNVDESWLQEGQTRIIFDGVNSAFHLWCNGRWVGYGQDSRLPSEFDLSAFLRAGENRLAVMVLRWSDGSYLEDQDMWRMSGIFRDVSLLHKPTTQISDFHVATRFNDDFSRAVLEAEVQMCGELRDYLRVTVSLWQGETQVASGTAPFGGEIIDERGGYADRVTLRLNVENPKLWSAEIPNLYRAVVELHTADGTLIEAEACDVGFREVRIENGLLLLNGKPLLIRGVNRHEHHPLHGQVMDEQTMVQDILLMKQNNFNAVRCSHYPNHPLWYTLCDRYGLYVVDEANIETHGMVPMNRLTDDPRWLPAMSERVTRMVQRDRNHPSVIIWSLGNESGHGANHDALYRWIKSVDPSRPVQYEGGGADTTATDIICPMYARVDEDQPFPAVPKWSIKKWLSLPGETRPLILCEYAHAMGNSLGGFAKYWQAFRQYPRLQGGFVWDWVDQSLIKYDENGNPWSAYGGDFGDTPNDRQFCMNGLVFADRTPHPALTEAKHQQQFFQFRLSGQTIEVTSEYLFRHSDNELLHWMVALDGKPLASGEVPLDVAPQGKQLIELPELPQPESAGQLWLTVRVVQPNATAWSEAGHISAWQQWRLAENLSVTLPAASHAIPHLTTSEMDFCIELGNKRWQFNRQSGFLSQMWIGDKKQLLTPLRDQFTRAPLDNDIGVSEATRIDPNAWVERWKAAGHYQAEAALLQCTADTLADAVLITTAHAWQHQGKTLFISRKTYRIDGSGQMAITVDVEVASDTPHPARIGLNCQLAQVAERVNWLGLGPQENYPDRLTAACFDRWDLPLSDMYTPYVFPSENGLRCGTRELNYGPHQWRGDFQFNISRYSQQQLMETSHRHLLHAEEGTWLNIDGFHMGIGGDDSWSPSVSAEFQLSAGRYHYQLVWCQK

For `Oc1c(Cl)c(Cl)c(Cl)c(Cl)c1Cl` [Pentachlorophenol], the Color intensity [1, 9] was “+++++”.

For `O.O.O.O.O.O=S(=O)([O-])[O-].[Cu+2]` [Copper (CuSO4.5H2 O), Copper], the “Minimum inhibitory concentration (MIC), CPRG pads” value ([2]; CPRG pads) was 0.50 mg/L, the “Minimum inhibitory concentration (MIC), fluorescent pads” value ([2]; Fluorescent (MUGA) pads) was 0.25 mg/L and the “MIC (Minimum Inhibitory Concentration)” value ([3]; MetPAD) was 0.5 mg/L. The “Total inactivation (toxicant concentration which causes 100% inhibition of enzyme activity)” value ([3]; MetPAD) was 1.0 mg/L, the “Color intensity, distilled water” value ([4]; 0.5 ppm) was “+++++” and the “Color intensity, distilled water” value ([4]; 0.8 ppm) was “+++++”. The “Color intensity, distilled water” value ([4]; 1.0 ppm) was “+++++”, the “Color intensity, trehalose medium” value ([4]; 1.0 ppm) was “-” and the “Color intensity, distilled water” value ([4]; 1.5 ppm) was “+++++”. For the same molecule, the “Color intensity, trehalose medium” value ([4]; 1.5 ppm) was “-”.

With `ClC(Cl)Cl` [Chloroform] the Color intensity ([1]; 3250 ppm) was “+++++”.

For Mercury [Mercury (HgSO4)], the “Minimum inhibitory concentration (MIC), CPRG pads” value ([2]; CPRG pads) was 0.25 mg/L, the “Minimum inhibitory concentration (MIC), fluorescent pads” value ([2]; Fluorescent (MUGA) pads) was 0.25 mg/L and the “MIC (Minimum Inhibitory Concentration)” value ([3]; MetPAD) was 0.5 mg/L. The “Total inactivation (toxicant concentration which causes 100% inhibition of enzyme activity)” value ([3]; MetPAD) was 1.0 mg/L, the “Color intensity, distilled water” value ([4]; 0.5 ppm) was “+++++” and the “Color intensity, distilled water” value ([4]; 1.0 ppm) was “+++++”. The “Color intensity, trehalose medium” value ([4]; 1.0 ppm) was “-”, the “Color intensity, distilled water” value ([4]; 1.5 ppm) was “+++++” and the “Color intensity, trehalose medium” value ([4]; 1.5 ppm) was “-”. For the same molecule, the “Color intensity, trehalose medium” value ([4]; 2.0 ppm) was “-”.

In the case of `O=S(=O)([O-])[O-].[Cd+2]` [Cadmium (CdSO4), Cadmium], the “Minimum inhibitory concentration (MIC), CPRG pads” value ([2]; CPRG pads) is reported as 0.30 mg/L, the “Minimum inhibitory concentration (MIC), fluorescent pads” value ([2]; Fluorescent (MUGA) pads) is reported as 0.30 mg/L and the “MIC (Minimum Inhibitory Concentration)” value ([3]; MetPAD) is reported as 0.2 mg/L. The “Total inactivation (toxicant concentration which causes 100% inhibition of enzyme activity)” value ([3]; MetPAD) was 1.0 mg/L, the “heavy metal toxicity, response of MetPAD (in words)” value ([3]; MetPAD, 7 heavy metals) was “most toxic among the metals tested” and the “Color intensity, trehalose medium” value ([4]; 1.0 ppm) was “-”. The “Color intensity, trehalose medium” value ([4]; 1.5 ppm) was “-”.

In the case of “beta-galactosidase: enzyme of freeze-dried E. coli EW1b cells”, the “stability of beta-galactosidase activity of freeze-dried cells” value ([5]; 4° C.) is reported as “stable for several weeks” and the “stability of the enzyme” value ([5]; 35° C.) is reported as “at least 18 hours”.

In the case of `CC(C)S[C@@H]1O[C@H](CO)[C@H](O)[C@H](O)[C@H]1O` [IPTG, isopropyl-beta-thiogalactoside], the beta-galactosidase production [6] is reported as “beta-galactosidase production could be enhanced”.

In the case of `C=O` [Formaldehyde], the Color intensity ([1]; 925 ppm, buffered to pH = 7.0 with K-phosphate buffer) is reported as “+++++”.

With `Cl[C@H]1[C@H](Cl)[C@@H](Cl)[C@@H](Cl)[C@H](Cl)[C@H]1Cl` [Lindane] the Color intensity ([1]; 500 ppm) was “+++++”.

For `O=S1(=O)OC(c2ccc(O)c(Cl)c2)(c2ccc(O[C@@H]3O[C@H](CO)[C@H](O)[C@H](O)[C@H]3O)c(Cl)c2)c2ccccc21` (stereo partly drawn) [CPRG, chlorophenol red-beta-D-galactopyranoside], the solubility [7] is given as “more than 50 mmol/L”, the stability ([7]; must be protected from light) is given as “stable at -20 °C” and the “stability of CPRG solution” value [8] is given as “stable at 4 °C for one week”.

In the case of `Cn1cc(-c2ccccc2)c(=O)c(-c2cccc(C(F)(F)F)c2)c1` [Sonar (Fluoridone), Fluoridone], the Color intensity [1, 9] is reported as “+++++”.

In the case of Chromium [Cr (K2 Cr2 O7)], the “Minimum inhibitory concentration (MIC), CPRG pads” value [2] is reported as 25.00 mg/L, the “Minimum inhibitory concentration (MIC), fluorescent pads” value [2] is reported as 25.00 mg/L and the “MIC (Minimum Inhibitory Concentration)” value [3] is reported as 25.0 mg/L. For the same molecule, the “Total inactivation (toxicant concentration which causes 100% inhibition of enzyme activity)” value [3] was 50.0 mg/L.

For `CCCCCCCCCCCCOS(=O)(=O)[O-].[Na+]` [Sodium dodecyl sulfate], the Color intensity ([1]; 3000 ppm) was “+++++”.

For `O=S(=O)([O-])[O-].[Zn+2]` [Zinc (ZnSO4), Zinc], the “Minimum inhibitory concentration (MIC), CPRG pads” value ([2]; CPRG pads) was 0.5 to 1.00 mg/L, the “Minimum inhibitory concentration (MIC), fluorescent pads” value ([2]; Fluorescent (MUGA) pads) was 0.50 mg/L and the “MIC (Minimum Inhibitory Concentration)” value ([3]; MetPAD) was 0.5 to 1 mg/L. For the same molecule, the “Total inactivation (toxicant concentration which causes 100% inhibition of enzyme activity)” value ([3]; MetPAD) was 3.0 mg/L, the “Color intensity, distilled water” value ([4]; 0.5 ppm) was “+++++” and the “Color intensity, trehalose medium” value ([4]; 0.5 ppm) was “+++++”. The “Color intensity, distilled water” value ([4]; 1.0 ppm) was “+++++”, the “Color intensity, trehalose medium” value ([4]; 3.0 ppm) was “-” and the “Color intensity, trehalose medium” value ([4]; 5.0 ppm) was “-”. The “Color intensity, trehalose medium” value ([4]; 7.5 ppm) was “-”, the “Color intensity, distilled water” value ([4]; 10.0 ppm) was “-” and the “Color intensity, trehalose medium” value ([4]; 10.0 ppm) was “-”.

With `O=[N+]([O-])[O-].O=[N+]([O-])[O-].[Pb+2]` [Lead (Pb(NO3)2), Lead] the “Minimum inhibitory concentration (MIC), CPRG pads” value ([2]; CPRG pads) was 5.00 mg/L, the “Minimum inhibitory concentration (MIC), fluorescent pads” value ([2]; Fluorescent (MUGA) pads) was 2.50 mg/L and the “MIC (Minimum Inhibitory Concentration)” value ([3]; MetPAD) was 5.0 mg/L. For the same molecule, the “Total inactivation (toxicant concentration which causes 100% inhibition of enzyme activity)” value ([3]; MetPAD) was 15.0 mg/L, the “Color intensity, trehalose medium” value ([4]; 3.0 ppm) was “+++++” and the “Color intensity, trehalose medium” value ([4]; 15.0 ppm) was “-”. For the same molecule, the “Color intensity, trehalose medium” value ([4]; 20.0 ppm) was “-”.

With `O=[N+]([O-])c1ccc(O)cc1` [p-nitrophenol] the Color intensity ([1]; 110 ppm) was “+++++”.

For `O.O.O.O.O.O.O=S(=O)([O-])[O-].[Ni+2]` [Ni (NiSO4.6H2 O), Nickel], the “Minimum inhibitory concentration (MIC), CPRG pads” value ([2]; CPRG pads) was 8.00 mg/L, the “Minimum inhibitory concentration (MIC), fluorescent pads” value ([2]; Fluorescent (MUGA) pads) was 5.00 mg/L and the “MIC (Minimum Inhibitory Concentration)” value ([3]; MetPAD) was 8.0 mg/L. The “Total inactivation (toxicant concentration which causes 100% inhibition of enzyme activity)” value ([3]; MetPAD) was 20.0 mg/L.

In the case of `Oc1ccccc1` [Phenol], the Color intensity ([1]; 3000 ppm) is reported as “+++++”.
